Assay results reported in patent US11529341B2, “Bicyclic compounds as inhibitors of PD1/PD-L1 interaction/activation” (JUBILANT PRODEL LLC, priority 2018, dated 2022).

Target: T1, PD-1/PD-L1 interaction (Homo sapiens, UniProt Q9NZQ7)
T1 construct: Tag1 (undisclosed kit tag); purchased CisBio 63ADK000CPAPEG
Assay: PD-1/PD-L1 Homogenous Time-Resolved Fluorescence (HTRF) binding assay (CisBio kit)
Settings: Biochemical PD1/PD-L1 inhibition
Procedure, shortened: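 Tagged PD-L1 and PD-1 proteins preincubated with compound 15 min, then anti-Tag1-Eu3+ donor and anti-Tag2-XL665 acceptor added, 1 h at room temperature. Emission read at 665 and 620 nm; signal expressed as HTRF ratio (665/620)×10^4, loss of signal indicating blocked binding.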

T1 sequence (Q9NZQ7 19-238 limits assumed): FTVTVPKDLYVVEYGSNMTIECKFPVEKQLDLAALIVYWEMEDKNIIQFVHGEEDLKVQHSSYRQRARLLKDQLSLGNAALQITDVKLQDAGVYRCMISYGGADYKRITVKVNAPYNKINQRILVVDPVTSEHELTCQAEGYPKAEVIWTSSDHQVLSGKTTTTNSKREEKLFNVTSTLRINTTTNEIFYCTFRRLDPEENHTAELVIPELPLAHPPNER

| Compound | IC50 [nM] |
| --- | --- |
| Cc1c(COc2cc(OCCCCC#N)c(CN3CCCC[C@H]3C(N)=O)c3c2CCC3)cccc1-c1ccccc1 [Compound 80, (S)-1-((5-(4-cyanobutoxy)-7-((2-methyl-[1,1′-biphenyl]-3-yl)methoxy)-2,3-dihydro-1H-inden-4-yl)methyl)piperidine-2-carboxamide] | > 500 |
| Cc1c(COc2cc(OCCCCC#N)c(CN3C[C@H](O)C[C@H]3C(=O)O)c3c2CCC3)cccc1-c1ccccc1 [Compound 81, (2S,4R)-1-((5-(4-cyanobutoxy)-7-((2-methyl-[1,1′-biphenyl]-3-yl)methoxy)-2,3-dihydro-1H-inden-4-yl)methyl)-4-hydroxypyrrolidine-2-carboxylic acid] | < 100 |
| Cc1c(COc2cc(OC[C@H]3C[C@H]3C(=O)O)c(CN3CCCC[C@H]3C(=O)O)c3c2CCC3)cccc1-c1ccccc1 [Compound 82, (S)-1-((5-(((1S,2R)-2-carboxycyclopropyl)methoxy)-7-((2-methyl-[1,1′-biphenyl]-3-yl)methoxy)-2,3-dihydro-1H-inden-4-yl)methyl)piperidine-2-carboxylic acid] | 100 to 500 |
| CC(=O)NCCNCc1c(OC[C@H]2C[C@H]2C(=O)O)cc(OCc2cccc(-c3ccccc3)c2C)c2c1CCC2 [Compound 83, (1R,2S)-2-(((4-(((2-acetamidoethyl)amino)methyl)-7-((2-methyl-[1,1′-biphenyl]-3-yl)methoxy)-2,3-dihydro-1H-inden-5-yl)oxy)methyl)cyclopropane-1-carboxylic acid] | 100 to 500 |
| COc1cc(OCc2cccc(-c3ccc4c(c3)OCCO4)c2C)c2c(c1CN1CCCC[C@H]1C(=O)O)CCC2 [Compound 84, (S)-1-((7-((3-(2,3-dihydrobenzo[b][1,4]dioxin-6-yl)-2-methylbenzyl)oxy)-5-methoxy-2,3-dihydro-1H-inden-4-yl)methyl)piperidine-2-carboxylic acid] | < 100 |
| COc1cc(OCc2cccc(-c3ccc4c(c3)OCCO4)c2C)c2c(c1CN1C[C@H](O)C[C@H]1C(=O)O)CCC2 [Compound 85, (2S,4R)-1-((7-((3-(2,3-dihydrobenzo[b][1,4]dioxin-6-yl)-2-methylbenzyl)oxy)-5-methoxy-2,3-dihydro-1H-inden-4-yl)methyl)-4-hydroxypyrrolidine-2-carboxylic acid] | 100 to 500 |
| CC(=O)NCCNCc1c(OCc2cccc(C#N)c2)cc(OCc2cccc(-c3ccccc3C)c2C)c2c1CCC2 [Compound 86, N-(2-(((5-((3-cyanobenzyl)oxy)-7-((2,2′-dimethyl-[1,1′-biphenyl]-3-yl)methoxy)-2,3-dihydro-1H-inden-4-yl)methyl)amino)ethyl)acetamide] | 100 to 500 |
| CC(=O)NCCNCc1c(OCc2cccc(C#N)c2)cc(OCc2cccc(-c3ccc(F)cc3)c2C)c2c1CCC2 [Compound 87, N-(2-(((5-((3-cyanobenzyl)oxy)-7-((4′-fluoro-2-methyl-[1,1′-biphenyl]-3-yl)methoxy)-2,3-dihydro-1H-inden-4-yl)methyl)amino)ethyl)acetamide] | 100 to 500 |
| Cc1c(COc2cc(OCc3cccc(C(N)=O)c3)c(CN3CCCC[C@H]3C(=O)O)c3c2CCC3)cccc1-c1ccccc1 [Compound 88, (S)-1-((5-((3-carbamoylbenzyl)oxy)-7-((2-methyl-[1,1′-biphenyl]-3-yl)methoxy)-2,3-dihydro-1H-inden-4-yl)methyl)piperidine-2-carboxylic acid] | 100 to 500 |
| Cc1c(COc2cc(OCc3cccc(C#N)c3)c(CN)c3c2CCC3)cccc1-c1ccccc1 [Compound 89, 3-(((4-(aminomethyl)-7-((2-methyl-[1,1′-biphenyl]-3-yl)methoxy)-2,3-dihydro-1H-inden-5-yl)oxy)methyl)benzonitrile] | < 100 |
| CC(=O)NCc1c(OCc2cccc(C#N)c2)cc(OCc2cccc(-c3ccccc3)c2C)c2c1CCC2 [Compound 90, N-((5-((3-cyanobenzyl)oxy)-7-((2-methyl-[1,1′-biphenyl]-3-yl)methoxy)-2,3-dihydro-1H-inden-4-yl)methyl)acetamide] | > 500 |
| CC(=O)NCCCCCC(=O)NCc1c(OCc2cccc(C#N)c2)cc(OCc2cccc(-c3ccccc3)c2C)c2c1CCC2 [Compound 91, 6-acetamido-N-((5-((3-cyanobenzyl)oxy)-7-((2-methyl-[1,1′-biphenyl]-3-yl)methoxy)-2,3-dihydro-1H-inden-4-yl)methyl)hexanamide] | > 500 |
| Cc1c(COc2cc(OCc3cccc(C#N)c3)c(CN(C)C)c3c2CCC3)cccc1-c1ccccc1 [Compound 92, 3-(((4-((dimethylamino)methyl)-7-((2-methyl-[1,1′-biphenyl]-3-yl)methoxy)-2,3-dihydro-1H-inden-5-yl)oxy)methyl)benzonitrile] | < 100 |
| CC(=O)NCCNCc1c(OCc2cncc(C(=O)O)c2)cc(OCc2cccc(-c3ccccc3)c2C)c2c1CCC2 [Compound 93, 5-(((4-(((2-acetamidoethyl)amino)methyl)-7-((2-methyl-[1,1′-biphenyl]-3-yl)methoxy)-2,3-dihydro-1H-inden-5-yl)oxy)methyl)nicotinic acid] | < 100 |
| CC(=O)NCCNCc1c(OCc2cncc(C(N)=O)c2)cc(OCc2cccc(-c3ccccc3)c2C)c2c1CCC2 [Compound 94, 5-(((4-(((2-acetamidoethyl)amino)methyl)-7-((2-methyl-[1,1′-biphenyl]-3-yl)methoxy)-2,3-dihydro-1H-inden-5-yl)oxy)methyl)nicotinamide] | < 100 |
| CC(=O)NCCNCc1c(OCc2cccc(C(N)=O)c2)cc(OCc2cccc(-c3ccccc3)c2C)c2c1CCC2 [Compound 95, 3-(((4-(((2-acetamidoethyl)amino)methyl)-7-((2-methyl-[1,1′-biphenyl]-3-yl)methoxy)-2,3-dihydro-1H-inden-5-yl)oxy)methyl)benzamide] | < 100 |
| COc1nc(OCc2cccc(-c3ccccc3)c2C)c2c(c1CNCCNC(C)=O)CCC2 [Compound 97, N-(2-(((3-methoxy-1-((2-methyl-[1,1′-biphenyl]-3-yl)methoxy)-6,7-dihydro-5H-cyclopenta[c]pyridin-4-yl)methyl)amino)ethyl)acetamide] | < 100 |
| COc1cc(OCc2cccc(-c3ccccc3)c2C)c2c(c1CN1CCOC[C@H]1C(=O)O)CCC2 [Compound 98, (S)-4-((5-methoxy-7-((2-methyl-[1,1′-biphenyl]-3-yl)methoxy)-2,3-dihydro-1H-inden-4-yl)methyl)morpholine-3-carboxylic acid] | < 100 |
